Data from patent publication US20160137639A1, “TRIAZOLE-ISOXAZOLE COMPOUND AND MEDICAL USE THEREOF” (JAPAN TOBACCO INC., priority 2012, published 2016).
Where two headings read alike, the source gives them in different places.

Key:
mouse RORγ = target: T1, mouse RORγ (Mus musculus, UniProt P51450); test: Luciferase reporter gene assay of inhibitory effect against RORγ transcriptional activity (GAL4-mRORγ plasmid in CHO cells); type: cell-based
T1 construct: mouse, NM_011281.2 and from Ile251 to Lys516; expressed in transfected cells; host or cells: CHO cells (transient co-transfection with pG5-Luc reporter)
T1 sequence (P51450 251-516): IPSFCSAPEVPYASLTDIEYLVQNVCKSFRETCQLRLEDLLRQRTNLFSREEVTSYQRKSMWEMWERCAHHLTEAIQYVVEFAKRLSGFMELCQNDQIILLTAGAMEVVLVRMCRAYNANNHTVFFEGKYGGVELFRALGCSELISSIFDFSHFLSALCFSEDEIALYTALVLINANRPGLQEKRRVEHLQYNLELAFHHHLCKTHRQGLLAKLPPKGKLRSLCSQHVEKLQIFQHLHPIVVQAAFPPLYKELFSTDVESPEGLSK
In short: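 Readout is intracellular luciferase after 2-day compound exposure (8 concentrations, 0.1% DMSO) in CHO cells expressing GAL4 fused to mouse RORγ LBD residues Ile251–Lys516 plus pG5-Luc reporter. EC50 fitted from %-of-control; points showing resazurin-detected cytotoxicity dropped.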

human RORγ = target: T2, human RORγ (Homo sapiens, UniProt P51449); test: Luciferase reporter gene assay of inhibitory effect against RORγ transcriptional activity (GAL4-hRORγ plasmid in CHO cells); type: cell-based
T2 construct: human, NM_005060.3 and from Ser253 to Lys518; expressed in transfected cells; host or cells: CHO cells (transient co-transfection with pG5-Luc reporter)
T2 sequence (P51449 253-518): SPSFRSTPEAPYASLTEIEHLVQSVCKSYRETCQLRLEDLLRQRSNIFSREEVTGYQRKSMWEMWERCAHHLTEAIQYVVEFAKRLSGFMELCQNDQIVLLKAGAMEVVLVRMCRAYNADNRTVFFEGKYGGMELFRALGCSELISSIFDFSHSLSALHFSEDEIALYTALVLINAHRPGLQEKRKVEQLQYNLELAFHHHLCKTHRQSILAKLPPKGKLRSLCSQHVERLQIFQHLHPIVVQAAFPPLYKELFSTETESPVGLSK

Compound | EC50 (mouse RORγ; read-out: LUC EC50 (μM) mRORg) [µM] | EC50 (human RORγ; read-out: LUC EC50 (μM) hRORg) [µM] | EC50 (mouse RORγ; read-out: LUC EC50 mRORg) [µM] | EC50 (human RORγ; read-out: LUC EC50 hRORg) [µM]
Cc1ccc(NC(=O)CC(CCCN2C(=O)c3ccccc3C2=O)c2nnc(CCCC(C)C)n2C2CC2)c(C)c1 (racemic) [Example F-281] | < 3 | < 3 | – | –
CC(=O)N1C[C@H](C(=O)Nc2ccc(C)cc2C)[C@@H](c2nnc(-c3cc(CC(C)(C)C)on3)n2C2CC2)C1 [Example F-631] | – | – | < 3 | < 3
CC(=O)N1CC([C@@H](CC(=O)Nc2ccc(C)cc2C)c2nnc([C@H]3C[C@@H](CC(C)C)C3)n2C2CC2)C1 [Example F-466] | < 3 | < 3 | – | –
Cc1ccc(NC(=O)C[C@H](CCC(=O)O)c2noc3c2C(C)CCC3CCC(C)C)c(Cl)c1 (single isomer, unassigned) [Example F-694] | – | – | < 3 | < 3
CCC(CC)C[C@H]1C[C@H](c2nnc(CCC(=O)Nc3ccc(C)cc3C)n2C2CC2)C1 [Example F-495] | < 3 | < 3 | – | –
Cc1cc(C)cc(NC(=O)CCc2nnc(CCC(C)C)n2C2CC2)c1 [Example F-76] | > 3 | > 3 | – | –
CCn1c(CCC(=O)Nc2cc(C)cc(C)c2)nnc1CCC(C)(C)C [Example F-46] | > 3 | > 3 | – | –
CNC(=O)C(C)(C)C[C@H]1C[C@@H](c2onc([C@@H](CCC(=O)O)CC(=O)Nc3ccc(C)cc3Cl)c2C2CC2)C1 [Example F-728] | – | – | < 3 | < 3
Cc1ccc(NC(=O)C[C@H](CC(=O)O)c2noc(-c3cc(C(F)(F)C(C)(C)C)on3)c2C2CC2)c(Cl)c1 [Example E-53, Sodium (R)-4-(2-chloro-4-methyl-phenylcarbamoyl)-3-[4′-cyclopropyl-5-(1,1-difluoro-2,2-dimethylpropyl)-[3,5′]biisoxazolyl-3′-yl]-butyrate] | < 3 | < 3 | – | –
CC(=O)N1C[C@H](C(=O)Nc2cccc(Cl)c2C)[C@@H](c2nnc(CCC3CCCCC3)n2C2CC2)C1 (racemic) [Example F-155] | < 3 | < 3 | – | –
Cc1ccc(NC(=O)[C@H]2CN(CC(=O)N(C)C)C[C@@H]2c2nnc([C@H]3C[C@@H](CC(C)C)C3)n2C2CC2)c(C)c1 [Example F-656] | – | – | < 3 | < 3
COc1cc(C)ccc1CNC(=O)CCc1nnc(CCCC(C)C)n1C1CC1 [Example F-217] | < 3 | < 3 | – | –
Cc1ccc(NC(=O)C[C@H](CCCO)c2noc([C@H]3C[C@@H](CC(C)(C)C)C3)c2C2CC2)c(Cl)c1 [Example F-672] | – | – | < 3 | < 3
Cc1ccc(NC(=O)C[C@H](CCC(=O)O)c2noc(-c3cc(C(F)(F)C(C)(C)C)on3)c2C2CC2)c(Cl)c1 [Example E-40] | < 3 | < 3 | – | –
Cn1c(CCC(=O)Nc2cccc3ccccc23)nnc1C1Cc2ccccc2C1 [Example F-8] | < 3 | > 3 | – | –
CC(=O)NCCC(CC(=O)Nc1ccc(C)cc1C)c1nnc(CCCC(C)C)n1C1CC1 (racemic) [Example F-275] | > 3 | > 3 | – | –
CCOC(=O)C(CC(=O)Nc1cccc(Cl)c1C)c1nnc(CCC(C)C)n1C1CC1 (racemic) [Example F-159] | > 3 | > 3 | – | –
C=CCC(CC(=O)Nc1ccc(C)cc1C)c1nnc([C@H]2C[C@@H](CC(C)C)C2)n1C1CC1 (mixture of isomers) [Example F-509] | – | – | < 3 | < 3
Cc1ccc(NC(=O)CCc2noc([C@H]3C[C@@H](CC(C)(C)C)C3)c2COCC(=O)O)c(Cl)c1 [Example F-704] | – | – | > 3 | > 3
CC(C)CCc1nnc(CCC(=O)N[C@H](C)c2ccccc2)n1C1CC1 [Example F-63] | > 3 | > 3 | – | –
Cc1ccc(NC(=O)[C@H]2CN(S(=O)(=O)C(F)(F)F)C[C@@H]2c2nnc(-c3cc(CC(C)C)on3)n2C2CC2)c(C)c1 [Example F-547] | – | – | < 3 | < 3
Cc1c(Cl)cccc1NC(=O)CCc1nnc(CC(C)C)n1C1CC1 [Example F-107] | > 3 | > 3 | – | –
Cc1c(Cl)cccc1NC(=O)CC(CCCOCc1ccccc1)c1nnc(CCC(C)C)n1C1CC1 (racemic) [Example F-195] | < 3 | < 3 | – | –
CC(C)C(F)(F)c1cc(-c2onc([C@@H](CCC(=O)O)CC(=O)Nc3ccc(Cl)cc3F)c2C2CC2)no1 [Example E-55] | < 3 | < 3 | – | –

Compound | EC50 (mouse RORγ; read-out: LUC EC50 (μM) mRORg) [µM] | EC50 (human RORγ; read-out: LUC EC50 (μM) hRORg) [µM] | EC50 (mouse RORγ; read-out: LUC EC50 mRORg) [µM] | EC50 (human RORγ; read-out: LUC EC50 hRORg) [µM]
Cc1ccc(NC(=O)C2CN(CC(=O)O)CC2c2noc([C@H]3C[C@@H](CC(C)(C)C)C3)c2C2CC2)c(Cl)c1 (stereo partly drawn) [Example F-687] | – | – | < 3 | < 3
C=CC[C@@H](CC(=O)Nc1ccc(C)cc1C)c1nnc(CCCC(C)(C)C)n1C1CC1 [Example F-389] | < 3 | < 3 | – | –
CCn1c(CCC(=O)NCc2cccc3ccccc23)nnc1C1Cc2ccccc2C1 [Example F-18] | < 3 | < 3 | – | –
CC(=O)N1C[C@H](C(=O)Nc2ccc(C)cc2C)[C@@H](c2nnc([C@H]3C[C@@H](c4ccccc4)C3)n2C2CC2)C1 (racemic) [Example F-346] | < 3 | < 3 | – | –
COC(=O)C(C)(C)CCCc1nnc(CCC(=O)Nc2cccc(Cl)c2C)n1C1CC1 [Example F-230] | < 3 | < 3 | – | –
CC1(c2cc(-c3onc([C@@H](CCC(=O)O)CC(=O)Nc4ccc(Cl)cc4F)c3C3CC3)no2)CCCC1 [Example E-71] | < 3 | < 3 | – | –
Cc1ccc(NC(=O)C[C@H](CCC(=O)O)c2noc(-c3cc(C4CCCC4)on3)c2C2CC2)c(Cl)c1 [Example E-24] | < 3 | < 3 | – | –
CC(C)(C[C@H]1C[C@@H](c2onc([C@@H](CCC(=O)O)CC(=O)Nc3ccc(CO)cc3Cl)c2C2CC2)C1)C(=O)O [Example F-739] | – | – | > 3 | > 3
Cc1c(Cl)cccc1NC(=O)CCc1nnc(C2CN(C(=O)C(C)C)C2)n1C1CC1 [Example F-259] | > 3 | > 3 | – | –
COC1C[C@@H](C(=O)Nc2ccc(C)cc2C)[C@H](c2nnc([C@H]3C[C@@H](CC(C)C)C3)n2C2CC2)C1 (single isomer, unassigned) [Example F-557] | – | – | > 3 | > 3
Cc1c(Cl)cccc1NC(=O)CCc1nnc(C2CCCC(C)C2)n1C1CC1 (stereo not drawn) [Example F-135] | < 3 | > 3 | – | –
Cc1ccc(NC(=O)C[C@H](CCC(=O)O)c2noc3c2CCCC3CCC(C)C)c(Cl)c1 (single isomer, unassigned) [Example F-698] | – | – | < 3 | < 3
Cc1ccc(C#N)cc1NC(=O)CCc1nnc(CCC(C)C)n1C1CC1 [Example F-143] | > 3 | > 3 | – | –
Cc1ccc(NC(=O)[C@H](CCC(=O)O)Cc2noc([C@H]3C[C@@H](CC(C)(C)C)C3)c2C2CC2)c(Cl)c1 [Example F-683] | – | – | < 3 | < 3
Cc1c(Cl)cccc1NC(=O)CCc1nnc(CC[C@H]2CC[C@H](C(=O)O)CC2)n1C1CC1 [Example F-243] | > 3 | < 3 | – | –
Cc1ccc(NC(=O)C[C@H](CCO)c2nnc(-c3cc(CCC(C)C)on3)n2C2CC2)c(C)c1 [Example F-615] | – | – | < 3 | < 3
Cc1ccc(NC(=O)CC(CC(=O)N2CC[C@H](O)C2)c2nnc([C@H]3C[C@@H](CC(C)C)C3)n2C2CC2)c(C)c1 (mixture of isomers) [Example F-503] | – | – | > 3 | > 3
COC1(CC(C)C)CC(c2nnc([C@H]3CN(C(C)=O)C[C@@H]3C(=O)Nc3ccc(C)cc3C)n2C2CC2)C1 (single isomer, unassigned) [Example F-483] | < 3 | < 3 | – | –
C=CCCCCc1onc(CCC(=O)Nc2cccc(C=C)c2)c1C1CC1 [Example F-738] | – | – | > 3 | > 3
Cc1c(F)cccc1NC(=O)C[C@H](CCO)c1nnc([C@H]2C[C@@H](CC(F)(F)F)C2)n1C1CC1 [Example F-589] | – | – | > 3 | > 3
Cc1c(Cl)cccc1NC(=O)CCc1nnc(C2CC(C)C2)n1C1CC1 (mixture of isomers) [Example F-168] | < 3 | > 3 | – | –
Cc1ccc(NC(=O)C[C@H](CCOCc2ccccc2)c2nnc([C@H]3C[C@@H](CC(C)C)C3)n2C2CC2)c(C)c1 [Example F-456] | < 3 | < 3 | – | –
Cc1ccc(NC(=O)C[C@H](CCC(=O)O)c2noc(-c3cc(C4CC(CC(C)(C)C)C4)on3)c2C2CC2)c(Cl)c1 (stereo partly drawn) [Example E-17] | < 3 | < 3 | – | –
Cc1ccc(NC(=O)[C@H]2CN(C(=O)CN(C)C)C[C@@H]2c2nnc([C@H]3C[C@@H](CC(C)(C)C)C3)n2C2CC2)c(C)c1 [Example F-648] | – | – | < 3 | < 3
